Results: ChEMBL document CHEMBL1201862, “PubChem BioAssay data set” (2004)
Calls of active or inactive are those of the source. Rule as the data show it: actives have a measured EC50 and inactives only a lower limit.

Tests used:
[1] = target: T1, Corticotropin-releasing factor receptor 2/Corticotropin-releasing factor-binding protein (Homo sapiens, UniProt P24387+Q13324); experiment: activators of CRF receptor 2 with binding protein – uHTS hits, confirmation (AID 602473); assay type: functional; settings: read-out: EC50_Mean
T1 sequence (Q13324 whole entry): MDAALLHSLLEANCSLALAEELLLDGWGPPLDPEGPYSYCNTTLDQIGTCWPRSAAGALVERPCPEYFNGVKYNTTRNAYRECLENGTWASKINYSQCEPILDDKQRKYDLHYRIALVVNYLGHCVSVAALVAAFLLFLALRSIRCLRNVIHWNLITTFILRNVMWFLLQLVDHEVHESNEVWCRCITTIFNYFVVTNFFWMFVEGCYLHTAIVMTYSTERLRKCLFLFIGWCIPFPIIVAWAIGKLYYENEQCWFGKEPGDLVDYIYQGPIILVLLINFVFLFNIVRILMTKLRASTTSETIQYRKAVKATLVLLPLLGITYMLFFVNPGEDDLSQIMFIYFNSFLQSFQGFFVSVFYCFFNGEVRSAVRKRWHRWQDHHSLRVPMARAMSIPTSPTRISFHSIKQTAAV
T1 sequence (P24387 whole entry): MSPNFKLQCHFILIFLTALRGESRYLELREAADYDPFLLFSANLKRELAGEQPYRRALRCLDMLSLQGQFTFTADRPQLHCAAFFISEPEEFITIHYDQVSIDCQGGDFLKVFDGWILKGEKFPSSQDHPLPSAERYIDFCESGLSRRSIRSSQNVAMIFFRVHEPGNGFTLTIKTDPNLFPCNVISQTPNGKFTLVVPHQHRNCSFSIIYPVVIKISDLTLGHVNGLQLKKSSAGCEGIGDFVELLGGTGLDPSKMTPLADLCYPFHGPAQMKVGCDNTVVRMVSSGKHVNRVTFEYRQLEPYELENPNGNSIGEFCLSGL

Streptokinase A = target: T2, Streptokinase A (Streptococcus pyogenes serotype M1, UniProt P10520); experiment: S. pyogenes streptokinase expression inhibitors, potency, dose response, plasminogen activation absorbance, OD405 (AID 1914); assay type: functional, Streptococcus pyogenes M1 GAS;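 also: secreted streptokinase activity via plasminogen activation per viability signal from cell pellet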
T2 sequence (P10520 whole entry): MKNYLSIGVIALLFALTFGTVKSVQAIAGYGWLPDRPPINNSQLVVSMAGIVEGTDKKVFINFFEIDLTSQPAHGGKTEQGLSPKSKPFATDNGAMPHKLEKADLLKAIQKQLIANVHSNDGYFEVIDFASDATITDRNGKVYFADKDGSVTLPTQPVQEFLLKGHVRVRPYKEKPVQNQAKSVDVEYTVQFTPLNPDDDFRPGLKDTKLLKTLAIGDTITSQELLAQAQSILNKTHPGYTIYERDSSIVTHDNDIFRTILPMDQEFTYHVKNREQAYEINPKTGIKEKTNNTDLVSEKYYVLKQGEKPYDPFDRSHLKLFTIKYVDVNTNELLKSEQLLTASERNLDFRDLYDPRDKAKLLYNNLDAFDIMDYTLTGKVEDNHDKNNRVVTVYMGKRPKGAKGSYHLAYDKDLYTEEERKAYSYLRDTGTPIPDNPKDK

[2] = tested on: Streptococcus sp. 'group A'; experiment: growth inhibition of control SK(-) GAS strain, dose response, counter-screen for streptokinase expression inhibitor project, luminescence, kanamycin, BacTiterGlo, confirmation (AID 1900); assay type: functional, organism-based
Streptococcus = experiment: Group A Streptococcus viability loss, dose response, counter-screen for streptokinase expression inhibitor project, luminescence, BacTiterGlo (AID 1915); assay type: functional, organism-based;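 also: potency for reduction of bacterial viability or growth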
[3] = target: T3, Heat shock factor protein 1 (Mus musculus, UniProt P38532); experiment: HSF1 potentiators in luciferase reporter cells, confirmation, cell-based, NIH3T3, luminescence, dose retest (AID 435004); assay type: functional;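 also: stress induced by proteasome inhibitor MG132 added 30 min after compound; luciferase reporter driven by HSF1 response element in NIH3T3 cells; actives raise luminescence as potentiators of the MG132 stress response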
T3 sequence (P38532 whole entry): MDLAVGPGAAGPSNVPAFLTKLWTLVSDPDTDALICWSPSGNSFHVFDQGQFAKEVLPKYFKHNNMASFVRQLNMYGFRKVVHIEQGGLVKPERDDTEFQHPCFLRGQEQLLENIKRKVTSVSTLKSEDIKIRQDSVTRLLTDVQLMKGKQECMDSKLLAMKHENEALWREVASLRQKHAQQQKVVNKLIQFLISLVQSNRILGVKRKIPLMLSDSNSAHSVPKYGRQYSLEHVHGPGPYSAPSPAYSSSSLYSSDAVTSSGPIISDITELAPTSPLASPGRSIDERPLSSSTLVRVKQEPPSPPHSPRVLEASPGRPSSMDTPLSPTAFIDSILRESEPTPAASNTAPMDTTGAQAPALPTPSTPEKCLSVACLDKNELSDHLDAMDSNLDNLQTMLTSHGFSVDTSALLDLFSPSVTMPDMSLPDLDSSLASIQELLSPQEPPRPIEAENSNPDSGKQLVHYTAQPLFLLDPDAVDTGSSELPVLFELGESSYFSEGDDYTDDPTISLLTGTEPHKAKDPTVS

[4] = cytotoxicity toward NIH3T3 fibroblasts, dose response, counter-screen, cell-based, ATP luminescence, mouse fibroblasts (AID 2010); assay type: functional;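 also: cells exposed to compound for about 90 hours before reading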
[5] = inhibitors of intracellular T. cruzi replication, confirmation, NIH3T3 host cells, beta-gal luminescence (AID 2044); assay type: functional, cell-based;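 also: intracellular parasites grown in NIH/3T3 mouse fibroblasts as host cells; luminescent beta-galactosidase reporter signal from transgenic T. cruzi replicating inside host cells; inhibitors lower the luminescence signal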

| Compound | EC50 (Streptokinase A) | EC50 [2] | EC50 (Streptococcus) | further results |
| --- | --- | --- | --- | --- |
| Cc1ccc(S(=O)(=O)NC(C(=O)O)c2ccccc2)cc1 (stereo unspecified) |  |  |  | EC50 [1]: > 53 µM (inactive) |
| OC1(C#Cc2c(-c3ccsc3)oc3ccc(N4CCOCC4)cc23)CCCCC1 | 54.6 µM (inconclusive) | 6.92 µM (active) | 15.3 µM (active) |  |
| CCOC(=O)CC(NC(=O)CCS(=O)(=O)c1ccc2c(c1)n(C)c(=O)c(=O)n2C)c1ccc(C)cc1 (stereo unspecified) | > 150 µM (not active) | > 150 µM (not active) | > 150 µM (not active) |  |
| Fc1ccc(-c2cc(C(F)(F)C(F)F)[nH]n2)cc1 |  |  |  | EC50 [1]: 6.17 µM (active) |
| CC(C)n1cc(/C=N/NC(=O)COc2cccc3cccnc23)c2ccccc21 |  |  |  | EC50 [3]: 75.1 µM (active) |
| Cc1cc(C)c(COc2ccc(/C=N/n3c(C)nnc3S)cc2)c(C)c1 | 12 µM (active) | 4.01 µM (active) | 12.2 µM (active) |  |
| O=C(CSc1nnc(-c2cccs2)o1)N1CCCc2ccccc21 |  |  |  | EC50 [3]: > 260 µM (inactive) |
| FC(F)(F)c1cccc(CNC2c3ccccc3-c3ccccc32)c1 | 19 µM (active) | 22.8 µM (active) | > 150 µM (not active) |  |
| COc1ccc2[nH]c(CN3CCN(CCC(C)C)C(CCO)C3)c(C)c2c1 (stereo unspecified) |  |  |  | EC50 [4]: > 60 µM (not active); EC50 [5]: 0.648 µM (active) |
| COc1ccc(C(=O)NC(=S)N2CCCCC2c2cccnc2)cc1OC (stereo unspecified) |  |  |  | EC50 [4]: > 60 µM (not active); EC50 [3]: > 260 µM (inactive); EC50 [5]: 1.32 µM (active) |
| Cc1ccc(C(=N)NOC(=O)N2CCOCC2)cc1 |  |  |  | EC50 [4]: > 60 µM (not active); EC50 [5]: 1.95 µM (active) |
| Cn1c(O)cc(=O)nc1SCC(=O)Nc1ccc(Cl)cc1 |  | 29.9 µM (active) | > 150 µM (not active) |  |
| COC(=O)c1c(C)oc2ccc(N(C(=O)Oc3ccccc3)S(=O)(=O)c3ccccc3)cc12 |  |  |  | EC50 [3]: > 260 µM (inactive) |
| NC(=O)CSC1=N/C(=C\c2ccco2)C(=O)N1c1ccc(OC(F)F)cc1 |  |  |  | EC50 [3]: 13.7 µM (active) |
| Cc1cccc(C)c1NC(=O)CN(C)CC(=O)Nc1sc2c(c1C(N)=O)CCC2 | > 150 µM (not active) | > 150 µM (not active) | > 150 µM (not active) |  |
| COc1cc(/C=C(/C#N)C(=O)c2c(C)[nH]c3ccccc23)ccc1OCC#N |  |  |  | EC50 [3]: > 260 µM (inactive) |
| FC(F)(F)c1cccc(Cn2nnnc2-c2cc(Cl)cc(Cl)c2)c1 |  |  |  | EC50 [3]: > 260 µM (inactive) |
| Clc1ccc(C2=NCCN2)cc1 |  |  |  | EC50 [4]: > 60 µM (not active); EC50 [5]: 0.24 µM (active) |
| C/C(=N\NC(=S)Nc1ccc(C)cc1)c1cccc(N)c1 |  |  |  | EC50 [1]: > 53 µM (inactive) |
| Cc1ccc(C(=O)NC(=S)N(C)C2CCCCC2)cc1Br |  | 2.54 µM (active) | 6.98 µM (active) | EC50 [4]: 8.13 µM (active); EC50 [5]: 2.07 µM (active) |
| O=C(CSc1nc[nH]n1)c1cccc([N+](=O)[O-])c1 |  |  |  | EC50 [3]: > 260 µM (inactive) |
| CC12CC3(C)CC(C)(C1)CC(C(=O)NC1=NCCS1)(C2)C3 | > 150 µM (not active) | 3.33 µM (active) | > 150 µM (not active) |  |
| C#CCN(N(C)c1ncc(C(F)(F)F)cc1Cl)S(=O)(=O)c1ccc2ccccc2c1 |  |  |  | EC50 [1]: > 53 µM (inactive) |
| O=C1NC(=O)N(Cc2ccccc2)C(=O)/C1=C/NNC(=O)c1ccccc1 | > 150 µM (not active) | 9.3 µM (active) | 16.4 µM (active) |  |

| Compound | EC50 (Streptokinase A) | EC50 [2] | EC50 (Streptococcus) | further results |
| --- | --- | --- | --- | --- |
| COc1ccc(OC)c(N/C(C)=C/C(=O)c2ccccc2)c1 |  |  |  | EC50 [4]: > 60 µM (not active); EC50 [5]: 2.49 µM (active) |
| COc1ccc(-c2nc3scc(-c4ccccc4)n3n2)cc1 |  |  |  | EC50 [3]: > 260 µM (inactive) |
| COc1ccc(C#Cc2ccc3c(=O)c4ccccc4n(C)c3c2)cc1 | 110 µM (active) | 10.3 µM (active) | 102 µM (active) |  |
| Cc1ccc2ccc(C(Nc3cccc(C(F)(F)F)c3)c3cccnc3)c(O)c2n1 (stereo unspecified) | > 150 µM (not active) | 2.12 µM (active) | 10.7 µM (active) |  |
| c1ccc(-c2nnc(-c3c[nH]c4ccccc34)nc2-c2ccccc2)cc1 | 20.1 µM (active) | 14.7 µM (active) | 68.7 µM (active) |  |
| Cc1ccc2nc(NCCC(=O)O)nc(-c3ccccc3)c2c1 |  |  |  | EC50 [1]: 5.3 µM (active) |
| Cc1cccc(CN2CCCC(C(=O)c3ccc4c5c(cccc35)CC4)C2)n1 (stereo unspecified) | > 150 µM (not active) | 15 µM (active) | > 150 µM (not active) |  |
| CN(C)CCN(C(=O)c1ccc(S(=O)(=O)N(C)c2ccccc2)cc1)c1nc2cc3c(cc2s1)OCO3 |  |  |  | EC50 [4]: > 60 µM (not active); EC50 [5]: 0.145 µM (active) |
| Cc1cnc(NC(=O)CSc2ncc(-c3ccccc3)n2Cc2ccco2)s1 |  |  |  | EC50 [1]: 5.51 µM (active) |
| c1ccc2c(c1)nc(Nc1ccc(N3CCCCC3)cc1)c1nncn12 | > 150 µM (not active) | 6.13 µM (active) | 91.3 µM (active) |  |
| CC(C)C(=O)N1CCC(n2nccc2NC(=O)CCOc2ccccc2)CC1 |  |  |  | EC50 [3]: > 260 µM (inactive) |
| Cc1ccc(NS(=O)(=O)c2ccc(C(=O)N3CC(C)OC(C)C3)cc2)cc1 (stereo unspecified) |  |  |  | EC50 [1]: 8.95 µM (active) |
| CC(=O)Nc1ccc(NC(=O)CSc2nnc(NC(=O)c3ccc(Br)o3)s2)cc1 | > 150 µM (not active) | 8.52 µM (active) | 44 µM (active) |  |
| Cc1cc(Cl)ccc1OCc1nc(-c2ccncc2)no1 |  |  |  | EC50 [4]: > 60 µM (inconclusive); EC50 [5]: 2.43 µM (active) |
| CCNC(=O)C(=O)NCc1ccncc1 |  |  |  | EC50 [3]: > 260 µM (inactive) |
| CCN(CC(=O)NC(C)C)Cc1nc(O)c2c3c(sc2n1)CCC3 |  |  |  | EC50 [3]: > 260 µM (inactive) |
| Cc1cc(C)cc(C(=O)NC2C(=O)N3C(C(=O)O)=C(CSc4nnc(C)s4)CSC23)c1 (stereo unspecified) | > 150 µM (not active) | 0.512 µM (active) | 1.62 µM (active) |  |
| CCOP(=O)(C(NC(=O)c1ccccc1Cl)=C(Cl)Cl)c1ccccc1 (stereo unspecified) |  |  |  | EC50 [3]: > 260 µM (inactive) |
| CCOC(=O)c1csc(N/N=C2\CCCc3ccccc32)n1 | > 150 µM (not active) | 9.3 µM (active) | 16 µM (active) |  |
| COCCn1c(-c2cc(OC)c(OC)c(OC)c2)nc2oc3cc(OC)ccc3c(=O)c2c1=O | > 150 µM (not active) | > 150 µM (not active) | > 150 µM (not active) |  |
| COc1ccc(-c2c[n+](-c3ccccc3)c3n2CCS3)cc1 |  |  |  | EC50 [4]: > 60 µM (not active); EC50 [5]: 0.688 µM (active) |
| COc1cccc(C2CC(c3cccs3)=NN2C(=O)CSc2nc(O)c3cnn(-c4ccc(F)cc4)c3n2)c1OC (stereo unspecified) |  | 1.63 µM (active) | 11.6 µM (active) |  |
| Cc1nc2c(C(=O)NCc3ccc4c(c3)OCO4)cnn2c(C)c1Cc1ccc(F)cc1Cl | 42.9 µM (active) | 9.62 µM (active) | > 150 µM (not active) |  |
| O=C(Nc1ccccc1C(=O)OCC(=O)c1c[nH]c2ccccc12)c1ccco1 |  |  |  | EC50 [3]: 55.3 µM (active) |
